“Also recorded” adds a separate entry of the source. Like-named read-outs stand apart in the source and are kept apart here.
What was measured:
A375 cells = assay type: cell-based, human; conditions: for Relative Growth Inhibition Compound A / IC10 concentration: A375 soft agar; for Relative Growth Inhibition Compound A: single compound at IC10; for IC10 concentration: treated every other day for three weeks, single agent; for expected (additive) reduction of colony formation: combination with PLX-4032, Bliss Independence prediction; for reduction of colony formation: combinatorial treatment with PLX-4032, each at IC10, FIG. 18A
Text: After three weeks of treatment, cells were fixed and stained in 1% paraformaldehyde in 1×PBS containing 0.005% crystal violet overnight. Cells were destained with multiple washes of 1×PBS to remove background staining. Plates were scanned and images quantified using Nikon NIS Elements software. To quantify, each image was sharpened and an ROI of equal size drawn around each well. Intensity thresholds were set to include all pixels equal to or greater than the intensity of the mean background fluorescence. Objects within the threshold of each ROI were quantified using an automated object count function and exported for analysis. Object number was quantified to denote total colony formation. […] Additivity was established when the expected viability determined by the Bliss independence model was equal to the actual viability. This model was chosen since the effects of both compounds are mutually non-exclusive and follow first order Michaelis-Menten kinetics.
To determine if the effects of each combination were more than, less than, or equal to additive, predictions for additivity were made using the Bliss Independence (Table 7), as disclosed in Yan H, Zhang B, Li S, Zhao Q. A formal model for analyzing drug combination effects and its application in TNF-alpha-induced NFkappaB pathway. BMC Syst. […] Drug combination studies and their synergy quantification using the Chou-Talalay method.

[1] = test system: lysosomes (LAMP1, LysoTracker Red) in U2OS cells; test: Lysosome analysis by fluorescent microscopy (LAMP1 / LysoTracker Red); assay type: cell-based; conditions: 3 μM for 3 hours; for LysoTracker Red staining: LysoTracker Red for the final hour
Experimental: To determine deacidification of the lysosome, cells were incubated with LysoTracker Red, a dye that localizes to the lysosome based on the […] of the compartment. If the lysosome is no longer acidic, there is a loss in the amount of LysoTracker Red staining. Lysosomal inhibition was further determined by immunofluorescence of lysosome-associated membrane protein-1 (LAMP1). If the lysosome is inhibited, lysosomal turnover should decrease and an increase in the amount of LAMP1 staining would be apparent. U2OS cells were treated with Example 7 or Example 26 at 3 μM for 3 hours, supplementing LysoTracker Red for the final hour.
Using image analysis software, the mean intensities of both the LAMP1 and LysoTracker Red staining were measured and represent altered intensity level between treatments on intensity plots. Individual points were measured using a line scan on the image analysis software, which measures the intensity across the path of a line at any given point. Not only does the presence of LAMP1 positive membranes increases, but the intensity in LAMP1 staining also increases with Example 7 and Example 26 treatment. The inverse relationship in intensity holds true for LysoTracker Red staining.
U2OS cells were seeded at 5×10^4 cells per well in 5A McCoy's with 10% FBS on number 1.5 coverglass discs in 24-well tissue culture dishes. After 24 hours, cells were treated with 3 μM CQ, QN, VATG-027, or VATG-032 for three hours. An hour prior to fixation, media was supplemented with LysoTracker Red added at 100 nM (Invitrogen, L7528). Cells were washed with 1×PBS, fixed with 3.7% formaldehyde, permeabilized with 0.2% Triton-X 100, and blocked with 3% bovine serum albumin (BSA) in PBS. LAMP1 antibody (Santa Cruz, sc-18821) was added at 1:1000 for 16 hours at 4° C. followed by Alexa-Fluor-488-conjugated anti-mouse IgG (Invitrogen, A11008) 1:5000 for 1 hour at room temperature. Nuclei were stained with Hoechst 33342 (2 μg/mL). Coverglass discs were inverted onto a microscope slide using mounting gel. The microscope slides were imaged using a 60× oil-immersion objective on a Nikon Eclipse Ti fluorescent microscope. Intensity of the red and green channels were visualized using the intensity plot on the Nikon NIS Elements software (FIG. 13B). […] The RGB threshold of only the color […] indicating both LAMP1 and LysoTracker Red positivity was performed and data for analysis. The Mander's co-localization coefficient was produced from the Nikon NIS Elements software.
Next, the inventors sought to confirm the inhibition of lysosomal turnover induced by the compounds of the present invention, for example, those of Formula III, Formula III(a), Formula V, Formula V(a), Formula A, Formula A^1, Formula A^2, Formula A^3, or a pharmaceutically acceptable salt thereof, by evaluating the abundance of endogenous lysosomal protein, LAMP1. In addition, lysosome acidity was assessed by co-staining cells with LysoTracker Red, a dye that localizes to the lysosome based on the low pH. Cells were treated with 3 μM CQ, QN, Example 7, or Example 27 for 3 hours, with LysoTracker Red supplemented for the final hour. Following, cells were fixed and stained with endogenous LAMP1 antibodies and both LAMP1 and LysoTracker Red imaged. […] To quantify this phenotype, the co-localization of LAMP1 and LysoTracker Red was measured using image analysis software. […] In addition, Mander's colocalization coefficient (MCC) values were determined for each treatment (FIG. 13C). Not only does the presence of LAMP1-positive membranes increase, but the intensity of LAMP1 staining also increases with QN, Example 7, and Example 27 treatment (FIG. 13C).

U2OS cells = test: Cell viability (IC50) screen, CellTiter Glo, U2OS; assay type: cell-based; conditions: for IC50: U2OS cell viability, CellTiter Glo, 48 hours
Experimental: U2OS cells were seeded at 500 cells per well in 5A McCoy's with 10% FBS in 96-well clear bottom, black-walled tissue culture plates. All melanoma cell lines (A375, UACC-91, UACC-257, UACC-502, UACC-903, UACC-1308, UACC-1940, UACC-2534, and UACC-3291) were seeded at 5,000 cells per well in RPMI 1640 with 10% FBS in 96-well clear bottom, black-walled tissue culture plates. After 24 hour incubation, cells were treated with VATG compounds in triplicate with a 10-point half log dose response from […] for 24 and 48 hours. Medium was removed and 2× CellTiter Glo (Promega, G7571) reagent mixed 1:1 with Opti-MEM (Invitrogen, 31985062) was added at 100 μL per well and incubated at room temperature for 15 minutes while rocking. 75 μL per well was moved to a white-walled 96-well plate and luminescence quantified using the 96 LUM program on an EnVision plate reader (PerkinElmer) and exported for analysis. All triplicate data points were averaged and luminescent readings for each treatment were normalized to vehicle control for change in viability. Dose response curves were input into SigmaPlot for IC50 calculations (Systat Software Inc).

[2] = Compound A combined with AZD-8055, each at IC10
[3] = Compound A combined with PLX-4032, each at IC10
[4] = U2OS IC50 relative to quinacrine

Row | SMILES | Relative Growth Inhibition Compound A (A375 cells) | IC10 concentration (A375 cells) | Actual Growth Inhibition (A375 cells; [2]) | Expected Bliss Additive Inhibition Value (A375 cells; [2]) | Actual Growth Inhibition (A375 cells; [3]) | Expected Bliss Additive Inhibition Value (A375 cells; [3]) | expected (additive) reduction of colony formation (A375 cells) | reduction of colony formation (A375 cells) | LAMP1 staining [1] | LysoTracker Red staining [1] | fold more cytotoxic than QN (U2OS cells; [4]) | IC50 (U2OS cells; read-out: IC50) | times less cytotoxic than QN (U2OS cells; [4]) | IC50 (U2OS cells) | IC50 (U2OS cells; Homo sapiens, U2OS, 48 h, read-out: IC50)
1 | COc1ccc2nc3cc(Cl)ccc3c(NCCCCN3CCN(C)CC3)c2c1 [Example 7, 6-Chloro-2-methoxy-N-(4-(4-methylpiperazin-1-yl)butyl)acridin-9-amine] | 0.37 | 5 nM | 0.57 | 0.44 | 0.64 | 0.49 | 49% | 64% | substantial increases | essentially ablated; also recorded: less intense; also recorded: essentially eliminated | 3.5 | 700 nM |  |  | 
2 | CN1CCN(CCNc2c3c(nc4cc(Cl)ccc24)CCCC3)CC1 [Example 27, 6-Chloro-N-(2-(4-methylpiperazin-1-yl)ethyl)-1,2,3,4-tetrahydroacridin-9-amine] | 0.37 | 2 nM | 0.50 | 0.44 | 0.62 | 0.49 | 49% | 62% | substantial increases | essentially ablated; also recorded: essentially eliminated |  |  | 10 | 27000 nM | 
3 | CCN(CC)CCCC(C)Nc1c2ccc(Cl)cc2nc2ccc(OC)cc12 (stereo not shown) [Quinacrine, quinacrine, reference compound] |  | 64 nM | 0.54 |  | 0.59 |  |  | 59% | substantial increases | essentially eliminated |  |  |  |  | 2500 nM
